In patent US20040192641A1, “Special preparation of anticancer drugs made by novel nanotechnology” (priority 2003, published 2004):

Columns and labels:
Hela = assay: Inhibition of tumor cell proliferation, Hela; assay type: cell-based, human; conditions: 72 hours
Protocol: Human tumor cell lines: Hela leukemia HL-60, malignant melanocarcinoma B16, oral epidermoid carcinoma (KB), lung carcinoma (A549), breast carcinoma MCF-7, adenocarcinoma of stomach.
(§1) Animal tumor cell lines: Walker carcinoma, LLC-WRC-256, malignant melanoma (RMMI 1846), 3T3, and S-180 sarcoma (CCRF-180). All lines were routinely cultured in the RPMI1640 medium supplemented 20% fetal calf serum. The experiment was carried out in 96 microplate, each well had 5×10^5 cells and given desired concentration of 1 μg/ml (1×10^−6 g/ml) drug. Then the plate was incubated at 37° C. in an atmosphere of humidified air enriched with 5 percent carbon dioxide for 72 hours.
Inhibition percent rate of tumor cell proliferation was obtained according to the bellow formula. [formula]
as §1, with “hours. Concentration of CUR or PK-CUR-NP is 50ng/ml.” for “hours.”
as §1, with “hours. Concentration of ELE or PK-ELE-NP is 50 ng/ml.” for “hours.”
as §1, with “hours. Concentration of CPT or PK-CPT-NP is 50 ng/ml.” for “hours.”

Lewis = assay: Growth of transplanted tumor, Lewis (tumor weight); assay type: in vivo, mice; conditions: 20 mg/kg i.p. from second day, tumor weight on 12th day
Protocol: (§2) Male mice, weight 20-22 g, were used in the experiment. 1×10^7 tumor cells were injected to mouse and PK-HHT-NP injected intraperitoneally began second day. All mice were sacrificed on the 12th days, isolated the tumor and weighed and calculated the inhibition rate of tumor weight.
(§3) Male mice, weight 20-22 g, were used in the experiment. 1×10^7 tumor cells were injected to mouse and CUR and PK-CUR-NP injected intraperitoneally began second day. All mice were sacrificed on the 12th days, isolated the tumor and weighed and calculated the inhibition rate of tumor weight.
(§4) Male mice, weight 20-22 g, were used in the experiment. 1×10^7 tumor cells were injected to mouse and ELE injected intraperitoneally began second day. All mice were sacrificed on the 12th days, isolated the tumor and weighed and calculated the inhibition rate of tumor weight.
(§5) Male mice, weight 20-22 g, were used in the experiment. 1×10^7 tumor cells were injected to mouse and CPT injected intraperitoneally began second day. All mice were sacrificed on the 12th days, isolated the tumor and weighed and calculated the inhibition rate of tumor weight.

Walker 256 = assay: Growth of transplanted tumor, Walker 256 (tumor weight); assay type: in vivo, mice; conditions: 20 mg/kg i.p. from second day, tumor weight on 12th day
Protocol: as §2, §3, §4, §5

[1] = system: Human promyelocytic leukemia cells (HL-60); assay: Induced differentiation of HL-60 cells (NBT reduction); assay type: cell-based; conditions: 0.1 μg/ml (10×10^−7 g/ml)
Protocol: (§6) Human promyelocytic leukemia cells (HL-60) were grown in RPMI Medium 1640 supplemented with 10% (v/v) heat-inactivated FBS (56° C. for 30 min) at 37° C. in a humidified 95% air/5% CO2 atmosphere. Cells were seeded at a level of 2×10^5 cells/ml. Cells were allowed to attain a maximum density of 1.2×10^6 cells/ml before being passed by dilution into fresh medium to a concentration of 2×10^5 cells/ml. Differentiation was induced in HL-60 cells by treatment with 0.1 μg/ml ([…]) of CUR or PK-CUR-NP. Cell differentiation was measured by the ability of cells to reduce NBT.
as §6, with “ELE” for “CUR”, “PK-ELE-NP.” for “PK-CUR-NP.”, “NBT. Increasing NBT % means that cancer cells are differentiation.” for “NBT.”
as §6, with “CPT” for “CUR”, “PK-CPT-NP.” for “PK-CUR-NP.”, “NBT. Increasing NBT % means that cancer cells are differentiation.” for “NBT.”

Subacute toxicity test = assay type: in vivo; conditions: 50 times the clinical dose, continually for two months
[2] = mice, I.P. (injection in abdominal cavity)

Row | Compound | inhibition at 0.05 µg/mL (Hela; Homo sapiens, HeLa, 50 ng/ml) [%] | Inhibition (%) of transplanted tumor (Lewis) [%] | Inhibition (%) of transplanted tumor (Walker 256) [%] | NBT % (percentage of cells capable of reducing NBT) [1] [%] | subacute toxicity: side effects (Subacute toxicity test) | LD50 (Acute toxicity LD50; mouse, in vivo, ip) [mg/kg] | Inhibition (%) (Hela; 50 ng/ml) | LD50 (Acute toxicity LD50; [2]) [mg/kg] | inhibition at 1 µg/mL (Hela; Homo sapiens, HeLa, 1 μg/ml) [%]
1 | CC[C@@]1(O)C(=O)OCc2c1cc1n(c2=O)Cc2cc3ccccc3nc2-1 [CPT, Camptothecin] | 60.8 ± 12.2 | 60.8 ± 10.4 | 71.8 ± 10.4 | 65.8 ± 9.1 | no side effects had been observed | 76 |  |  | 
2 | C=C1C[C@@]2(O)O[C@@]3(C[C@H]2C(C)C)[C@@H](C)CC[C@@H]13 [CUR, Curcumol] |  | 68.9 ± 7.8 | 59.8 ± 8.5 | 68.5 ± 8.5 | no side effects had been observed |  | 67.2 ± 10.4 | 325 | 
3 | COC(=O)C[C@](O)(CCCC(C)(C)O)C(=O)O[C@@H]1C(OC)=C[C@]23CCCN2CCc2cc4c(cc2[C@H]13)OCO4 [HHT, Homoharringtonine] |  | 70 ± 6 | 83 ± 9 |  |  | 3.3 ± 0.29 |  |  | 75.6 ± 8
4 | Eelemene |  | 65.8 ± 10.5 | 60.8 ± 8.9 | 69.5 ± 10.1 | no side effects had been observed |  | 69.8 ± 11.2 | 318 | 
